Patent US5389621A, “Method of enhancing the anticoagulant effects of aspirin using salicylamide” (University of Medicine and Dentistry of New Jersey, priority 1994, dated 1995)
Read-outs that look alike come from different tables or passages of the source.

Key:
[1] = Acid-hydrolyzed fraction of SA in liver, kidney and plasma after 14C-aspirin; conditions: low or high dose combinations
Description: Forty-eight rats were divided into two groups. The first group of rats was administered ASA, SAM or their combination in a dose approximately equal (w/w) to that in the commercially available combinations, e.g., BC® formula, when administered to humans, i.e., 10 and 3 mg/kg of ASA and SAM, respectively. The second group was administered double the dosage received by the first group.
For each sample to be analyzed, 2 aliquots each of 300 mg of tissue (liver or kidney) or 100 μl of plasma, were placed in polyethylene wide-pore tubes (Fisherbrand) along with 0.5 ml of physiological saline. The tissues were homogenized using an electrical homogenizer (Polytron, Brinkmann Instruments, Westbury, N.Y.) on high speed for 2 minutes for each sample. The tubes were dipped in ice during this procedure to minimize any loss of SA by sublimation from the heat generated by the high speed of the homogenization.
The homogenates were transferred by pipette to pyrex screw-top test tubes and the tubes were then divided into 2 groups: […]
The supernatants were filtered through disposable 0.45 μm Acrodisc filters and 100 μl were injected onto HPLC. […] The radioactivity in the vials was measured by Beckman LS scintillation counter and the difference in radioactivity between the control vials and the acidhydrolyzed ones was indicative of SA conjugates as well as part of the protein-bound SA in the tissue samples. […]

cyclooxygenase = conditions: in vitro, cited from earlier work
[2] = cited from earlier work
[3] = oral, rats; cited from earlier work
[4] = tested on: lyso-PAF:acetyl-CoA acetyltransferase; conditions: cited from earlier work
lipooxygenase pathway = conditions: cited from earlier work

SMILES	Change of acid-hydrolyzed SA fraction in liver [1]	Effect on cyclooxygenase (cyclooxygenase)	Effect on cyclooxygenase (cyclooxygenase; listed as salicylamide)	Biliary excretion ([2]; in vivo)	Bound to plasma proteins ([2]; in vivo)	Hydrolysis in vivo to a salicylate ([2]; in vivo)	First-pass metabolism of the administered dose ([2]; oral)	Intestinal and hepatic extraction and/or metabolism of oral dose [3]	Effect on lyso-PAF:acetyl-CoA acetyltransferase [4]	Effect on the lipooxygenase pathway (lipooxygenase pathway)
NC(=O)c1ccccc1O [SAM, Salicylamide]	did not affect	no effect in vitro on cyclooxygenase	does not have a demonstrable effect on the cyclooxygenase pathway in vitro	negligible	About 50%	not hydrolyzed in vivo to form a salicylate	up to 70%			
CC(=O)Oc1ccccc1C(=O)O [ASA, acetylsalicylic acid]								More than 60%	inhibitory effect	reversibly block the lipooxygenase pathway
